Experimental data as given in patent publication US20250197451A1, “USE OF BIOACTIVE POLYPEPTIDE SYNTHESIZED ON BASIS OF KDM2B SEQUENCE IN NEURAL DIFFERENTIATION AND REGENERATION AND REPAIR OF MESENCHYMAL STEM CELLS” (CAPITAL MEDICAL UNIVERSITY SCHOOL OF STOMATOLOGY, priority 2021, published 2025).
“And” between values parts separate entries of the source, which are not always exact repeats. Equal values may be shown once. Ends that are not written are not given here.

How the values were obtained:
[1] = tested on: stem cells from apical papilla (SCAPs); experiment: neural induction in vitro: neurosphere formation with βIII-TUBULIN / NESTIN immunofluorescence staining; type: cell-based, human
Source text: […]

KDM2B = experiment: real-time fluorescence reverse transcription quantitative PCR, KDM2B/GAPDH in SCAPs; type: cell-based, human
Experimental: The plasmid was constructed according to standard methods. The complementary shRNA sequence targeting KDM2B gene was cloned into the viral vector pLKO.1 plasmid, sequenced and identified to complete the construction of the KDM2B shRNA plasmid. After PCR primers were designed for the full-length sequence of the KDM2B gene, the full-length sequence of the KDM2B gene was obtained by amplification, and the HA Tag was added. The tagged full-length KDM2B gene was ligated with the pQCXIN retroviral expression vector, sequenced and identified to obtain the plasmid containing the HA tagged full-length KDM2B gene. The virus packaging was carried out, and the resulting virus was collected, and the virus titer was measured. The virus was aliquoted and stored in the refrigerator at −80° C. The virus at a titer of 10-7 was incubated with stem cells from apical papillae in the presence of polybrene for 48 hours for infection, and the antibiotic was used to screen the infected cells. The sequence of the complementary shRNA targeting the KDM2B gene was represented as KDM2Bsh, with a nucleic acid sequence of 5′-[…]-3′ (SEQ ID NO: 287).

EZH2 protein = EZH2 protein (Homo sapiens, UniProt Q15910); experiment: KDM2B polypeptide microarray immune-hybridization with biotin-labelled EZH2 protein; type: binding; details: for Intensity (%) (gray intensity of colored points on the KDM2B polypeptide microarray): biotin-labelled EZH2 1 μg/ml, highest optical density set to 100%, some points noise/spike; for binding site of KDM2B to EZH2 (positive / negative): polypeptide microarray
Sequence of EZH2 protein (Q15910 whole entry, species assumed): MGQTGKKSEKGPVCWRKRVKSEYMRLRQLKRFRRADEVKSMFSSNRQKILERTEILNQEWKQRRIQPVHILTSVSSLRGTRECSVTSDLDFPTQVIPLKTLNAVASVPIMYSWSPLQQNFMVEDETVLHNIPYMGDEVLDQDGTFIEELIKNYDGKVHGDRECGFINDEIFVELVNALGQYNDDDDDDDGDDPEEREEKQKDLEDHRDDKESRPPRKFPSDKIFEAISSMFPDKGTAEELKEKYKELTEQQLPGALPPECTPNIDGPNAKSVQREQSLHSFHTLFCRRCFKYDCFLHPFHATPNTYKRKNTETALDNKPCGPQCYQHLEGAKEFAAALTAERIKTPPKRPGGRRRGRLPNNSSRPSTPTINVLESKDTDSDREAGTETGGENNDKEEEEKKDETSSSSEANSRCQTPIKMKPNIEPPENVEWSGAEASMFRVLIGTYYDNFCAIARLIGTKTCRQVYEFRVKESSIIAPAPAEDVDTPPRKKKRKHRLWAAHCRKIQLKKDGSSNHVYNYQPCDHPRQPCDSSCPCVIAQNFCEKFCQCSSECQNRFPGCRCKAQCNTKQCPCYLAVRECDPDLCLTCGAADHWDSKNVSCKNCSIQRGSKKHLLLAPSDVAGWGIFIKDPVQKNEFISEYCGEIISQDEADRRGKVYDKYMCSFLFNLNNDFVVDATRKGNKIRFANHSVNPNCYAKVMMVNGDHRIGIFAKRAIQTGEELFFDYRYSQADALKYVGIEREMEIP
Source text: […]

[2] = tested on: rat model of spinal cord injury (completely transected T10 spinal cord); experiment: rat model of spinal cord injury, transplantation of stem cells from apical papilla (BBB score, gross appearance); type: in vivo; details: SCI + SCAPs pre-treated with 10 μg/ml peptide 24 hours, individual rats
Source text: […]

[3] = tested on: rat model of spinal cord injury (complete transection site T10 spinal cord); experiment: rat model of spinal cord injury, local injection of peptide alone (BBB score, gross appearance); type: in vivo; details: SCI + peptide alone, 10 μg/ml in 30 μl weekly local injection, individual rats
Experimental: 10 μg/ml of peptide 46-47 in a total of 30 μl was weekly injected into 10-week-old rats at the complete transection site T10 spinal cord (5 individual rats per group).

[4] = virally transfected SCAPs (overexpression or knockdown), Day 9, individual samples
[5] = SCAPs + 10 μg/ml peptide, Day 9 of induction, individual samples
[6] = SCAPs + 10 μg/ml peptide, Day 9 of induction, mean of 5 samples

With “5′-ATTTTGACGGGGTGGATAATCTG-3′ (expressed or natural sequence) [KDM2Bsh, complementary shRNA targeting the KDM2B gene, cloned into viral vector pLKO.1, reference compound]” the “Number of NESTIN-positive neurospheres” value [1, 4] was 5 and 4 and 2 (2×) and 3, the “Number of βIII-TUBULI-positive neurospheres” value [1, 4] was 4 (2×) and 2 and 6 and 3 and the “Number of βIII-TUBULI-positive neurospheres, Means” value ([1]; virally transfected SCAPs (overexpression or knockdown), Day 9, mean of 5 samples, Vector 9, Scramsh 9) was 3.8. The “Number of NESTIN-positive neurospheres, Means” value ([1]; virally transfected SCAPs (overexpression or knockdown), Day 9, mean of 5 samples, Vector 11, Scramsh 8.2) was 3.2, the “Expression of KDM2B/GAPDH in KDM2B-knockdown SCAPs (fold)” value (KDM2B; individual samples) was 0.34 fold and 0.31 fold and 0.28 fold and the “Expression of KDM2B/GAPDH in KDM2B-knockdown SCAPs (fold), Means” value (KDM2B; mean of 3 samples, Scramsh 1.0003) was 0.3067 fold.

“A V G T T T R D S L T E I N L (AVGTTTRDSLTEINL; synthesized KDM2B peptide) [compound 253]” was tested, and the “Intensity (%) (gray intensity of colored points on the KDM2B polypeptide microarray)” value (from here on “Intensity (%)”) (EZH2 protein) was 70.41%.

“C I M R Q C I A P V L P H T A (CIMRQCIAPVLPHTA; synthesized KDM2B peptide) [compound 130]” was tested, and the “Intensity (%)” value (EZH2 protein) was 30.8%.

“ConPP: control polypeptide synthesized from the negative binding sites (peptide 83-84) of KDM2B, with cell-penetrating peptide and FITC label (EEEACDQQPQEEEEKDEEGE; also: cell-penetrating peptide and FITC label, sites not given here)” was tested, and the “Number of NESTIN-positive neurosphers” value [1, 5] was 3 (2×) and 4 (2×) and 6, the “Number of βIII-TUBULIN-positive neurosphers” value [1, 5] was 8 (2×) and 6 (2×) and 7 and the “Number of NESTIN-positive neurosphers, Means” value [1, 6] was 4. The “Number of βIII-TUBULIN-positive neurosphers, Means” value [1, 6] was 7, the “BBB score of hind limb motor function” value ([2]; 0 w) was 5 and 4 (4×) and the “BBB score of hind limb motor function” value ([2]; 1 w) was 5 (3×) and 6 (2×). The “BBB score of hind limb motor function” value ([2]; 2 w) was 6 (2×) and 7 (3×), the “BBB score of hind limb motor function” value ([2]; 3 w) was 8 (3×) and 9 (2×) and the “BBB score of hind limb motor function” value ([2]; 4 w) was 10 (2×) and 11 and 12 and 13. For the same substance, the “BBB score of hind limb motor function” value ([3]; 1 w) was 6 (3×) and 5 (2×), the “BBB score of hind limb motor function” value ([3]; 2 w) was 7 (2×) and 6 (2×) and 8 and the “BBB score of hind limb motor function” value ([3]; 3 w) was 9 (3×) and 10 and 8. For the same substance, the “BBB score of hind limb motor function” value ([3]; 4 w) was 12 (2×) and 11 (3×) and the “BBB score of hind limb motor function” value [3] was 4 (3×) and 5 (2×).

With “D Q Q P Q E E E E K D E E G E (DQQPQEEEEKDEEGE; synthesized KDM2B peptide) [peptide 84]” the “binding site of KDM2B to EZH2 (positive / negative)” value (EZH2 protein) was “negative”.

In the case of “E E E A C D Q Q P Q E E E E K (EEEACDQQPQEEEEK; synthesized KDM2B peptide) [peptide 83]”, the “binding site of KDM2B to EZH2 (positive / negative)” value (EZH2 protein) was “negative”.

With “G K Q S D I F L G D R V E R C (GKQSDIFLGDRVERC; synthesized KDM2B peptide) [compound 57]” the “Intensity (%)” value (EZH2 protein) was 39.95%.

In the case of “I Y E I E D R T R V Q P K F R (IYEIEDRTRVQPKFR; synthesized KDM2B peptide) [compound 69]”, the “Intensity (%)” value (EZH2 protein) was 0.15%.

With “L A V D Y P K T P T G S P A T (LAVDYPKTPTGSPAT; synthesized KDM2B peptide) [compound 98]” the “Intensity (%)” value (EZH2 protein) was 0.77%.

For “Q P K F R Y P F Y Y E M C W Y (QPKFRYPFYYEMCWY; synthesized KDM2B peptide) [compound 71]”, the “Intensity (%)” value (EZH2 protein) was 0.57%.

For “T E I N L S D C N K V T D Q C (TEINLSDCNKVTDQC; synthesized KDM2B peptide) [compound 255]”, the “Intensity (%)” value (EZH2 protein) was 100%.

For “T R D S L T E I N L S D C N K (TRDSLTEINLSDCNK; synthesized KDM2B peptide) [compound 254]”, the “Intensity (%)” value (EZH2 protein) was 100%.

“V L E R Y V Y C V T Q R S H L (VLERYVYCVTQRSHL; synthesized KDM2B peptide) [compound 74]” was tested, and the “Intensity (%)” value (EZH2 protein) was 0.25%.
